These results are taken from patent US20230293526A1, “METHOD FOR TREATING CANCER WITH A REVERSE TRANSCRIPTASE INHIBITOR” (PrimeFour Therapeutics, Inc., priority 2020, published 2023).

For one experiment, the system named is MKN-45. The experiment in a line: Cell proliferation CellTiterGlo Ex.2. Type of experiment: cell-based. To be noted: Homo sapiens; MKN-45 (Stomach), 72 h. Put shortly:
(§1)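 Cells were seeded, incubated overnight at 37 °C, then dosed at 10, 3, 1, 0.3, 0.1, 0.03, 0.01 and 0.003 μM for 72 h (5% or 10% CO2). CellTiterGlo luminescence gave percent viability relative to 0.10% DMSO (high) and 10 μM staurosporine (low) controls.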
On the technique in general: ATP-based viability assays read luminescence as a measure of living cells.

Another experiment has as its system SCLC-21H. In words: Cell proliferation CellTiterGlo Ex.2. Type of experiment: cell-based. The note with it: Homo sapiens; SCLC-21H (Lung), 72 h. In short, it runs like this: as §1

Take `C#C[C@]1(CO)O[C@@H](n2cnc3c(=O)[nH]c(N)nc32)C[C@@H]1O` [compound 13]: the half-inhibitory concentration (IC50) (as a rule, the midpoint of a concentration-inhibition curve) in the experiment on MKN-45 was > 10 µM; in the experiment with SCLC-21H, 6.78 µM.
